# Reference: US6794560B2, “Nucleic acid encoding GAI gene of Arabidopsis thaliana” (Pioneer Hi-Bred International, Inc., priority 1996, dated 2004)
# How the values were obtained:
# [1] = test system: stimulation of cell elongation, leaf senescence or elicitation of the cereal aleurone α-amylase response; settings: structure-activity statement; cited from earlier work
# gai mutants = settings: cited from earlier work
# kaurene oxidase reaction = biological target: T1, kaurene oxidase reaction (Arabidopsis thaliana, UniProt Q93ZB2); settings: cited from earlier work
# T1 sequence (Q93ZB2 1-509): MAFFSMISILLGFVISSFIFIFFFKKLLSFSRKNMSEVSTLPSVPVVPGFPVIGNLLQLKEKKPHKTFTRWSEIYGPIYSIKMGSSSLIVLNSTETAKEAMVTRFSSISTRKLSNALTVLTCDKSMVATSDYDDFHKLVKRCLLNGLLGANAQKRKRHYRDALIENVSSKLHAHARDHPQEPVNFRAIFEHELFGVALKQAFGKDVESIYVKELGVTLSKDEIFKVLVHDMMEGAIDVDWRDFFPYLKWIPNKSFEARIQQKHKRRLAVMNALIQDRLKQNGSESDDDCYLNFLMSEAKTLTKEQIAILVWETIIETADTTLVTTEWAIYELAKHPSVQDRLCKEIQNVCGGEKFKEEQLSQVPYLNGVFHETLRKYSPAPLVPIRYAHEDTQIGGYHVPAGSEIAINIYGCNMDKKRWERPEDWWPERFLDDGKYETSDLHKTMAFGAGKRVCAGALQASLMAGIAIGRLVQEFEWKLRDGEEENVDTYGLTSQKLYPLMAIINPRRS
# gai-t6 mutant = assay: growth on medium containing paclobutrazol; assay type: in vivo, Arabidopsis thaliana; settings: grown on medium containing paclobutrazol
# Text: The slender mutants of pea and barley are resistant to the dwarfing effects of paclobutrazol^38-42, as is the Arabidopsis constitutive GA-response mutant spy^43,44. Thus, in these mutants stem elongation is at least partially uncoupled from the GA-mediated control characteristic of normal plants. […] Put another way, a GAI null mutant appears to require less endogenous GA to achieve a certain degree of growth than does a normal plant. GA-dependency is not completely abolished by gai-t6 possibly because the products of genes related in sequence to GAI (see above) can substantially, but not completely, compensate for loss of GAI function.
# plants = settings: reduces endogenous GA levels; cited from earlier work
Structure (SMILES),biological activity of gibberellin [1],response of gai mutants to GA treatment (gai mutants),also measured
C=C1C[C@]23C[C@@]1(O)CC[C@H]2[C@@]12C[C@H](O)[C@H](O)[C@@](C)(C(=O)O1)[C@H]2[C@@H]3C(=O)O [GA8],inactivity,–,–
C=C1C[C@]23C[C@@]1(O)CC[C@H]2[C@@]12C=C[C@H](O)[C@@](C)(C(=O)O1)[C@H]2[C@@H]3C(=O)O [GA3],–,do not respond,–
C=C1C[C@]23C[C@H]1CC[C@H]2[C@@]12C[C@H](O)[C@H](O)[C@@](C)(C(=O)O1)[C@H]2[C@@H]3C(=O)O [GA34],inactivity,–,–
C=C1C[C@]23C[C@H]1CC[C@H]2[C@@]12C=C[C@H](O)[C@@](C)(C(=O)O1)[C@H]2[C@@H]3C(=O)O [GA7],high biological activity,–,–
C=C1C[C@]23C[C@@]1(O)CC[C@H]2[C@@]12CC[C@H](O)[C@@](C)(C(=O)O1)[C@H]2[C@@H]3C(=O)O [GA1],high biological activity,do not respond,–
C=C1C[C@]23C[C@H]1CC[C@H]2[C@@]12CC[C@H](O)[C@@](C)(C(=O)O1)[C@H]2[C@@H]3C(=O)O [GA4],high biological activity,do not respond,–
CC(C)(C)[C@@H](O)[C@@H](Cc1ccc(Cl)cc1)n1cncn1 (racemic) [Paclobutrazol],–,–,inhibition of GA biosynthesis (kaurene oxidase reaction): specifically inhibits GA biosynthesis; floral bolt stem length of gai-t6 mutants vs GAI control plants (gai-t6 mutant): longer floral bolt stems than GAI control plants; phenotype of plants exposed (plants): conferring a dwarf phenotype
C=C1C[C@]23C[C@H]1CC[C@H]2[C@@]12C[C@H](O)C[C@@](C)(C(=O)O1)[C@H]2[C@@H]3C(=O)O [GA51],inactivity,–,–
C=C1C[C@]23C[C@@]1(O)CC[C@H]2[C@@]12C[C@H](O)C[C@@](C)(C(=O)O1)[C@H]2[C@@H]3C(=O)O [GA29],inactivity,–,–
